Source: patent publication US12202805B2, “Process for preparing (5S)-{[2-(4-carboxyphenyl)ethyl] |2-(2-{|3-chloro-4'-(trifluoromethyl)biphenyl-4-yl]methoxy}phenyl)ethyl]aminol-5,6,7,8-tetrahydroquinoline-2-carboxylic acid and its crystalline forms for use as pharmaceutically active compound” (Bayer Aktiengesellschaft, priority 2021, dated 2025)

Experiment: E-2.1 plasma concentrations over time after inhalation in healthy male subjects
Assay type: in vivo, human
Details: all doses administered
Procedure: Healthy White male subjects, aged 18 to 45 years and with a body mass index (BMI) above/equal 18.5 and below/equal 29.9 kg/m2 were treated in a clinical pharmacological phase I study on seven days with inhaled once daily doses of 480 μg or 1000 μg or 2000 μg (2 capsules of 1000 μg) (nominal dose) of dry powder formulations comprising example 2 or Placebo. The subjects inhaled the drug powder from capsules (see under C-1, e.g. tables 22 and 23) inserted into a handheld inhalation device by one deep inhalative breath. The dry powder formulation of the drug is dispersed into the airstream and fine particles are transported into the deep parts of the lung where it is intended to cause a vasodilation of the blood vessels in PH patients for a substantial reduction of increased blood pressure in the central pulmonary blood vessels in PAH patients or other subtypes of PH. This effect cannot be shown in subjects with healthy lungs. In addition inhaled drug causes a dilation of the bronchial airways and thus also improves disease states of lung diseases in PH patients with pathological bronchoconstriction. This effect was measured via bodyplethysmography as reduction of Specific Airway Resistance in healthy subjects. […]

## O=C(O)c1ccc(CCN(CCc2ccccc2OCc2ccc(-c3ccc(C(F)(F)F)cc3)cc2Cl)[C@H]2CCCc3nc(C(=O)O)ccc32)cc1 [example 2, (5S)—{[2-(4-Carboxyphenyl)ethyl][2-(2-{[3-chloro-4′-(trifluoromethyl)biphenyl-4-yl]methoxy}phenyl)-ethyl]amino}-5,6,7,8-tetrahydroquinoline-2-carboxylic acid as Monohydrate II]
  persistence of measurable plasma concentration after first inhalation: 48 h
